Format in all cases: cell-based
Experiment [1] relates to endogenously inflamed ex vivo human skin sample. Description: Inhibitors of endogenous inflammation: IL-8/IL-6 secretion by ex vivo skin samples. The following applies: for IL-8 secretion: endogenously inflamed skin sample, without inhibitor about 2,600 pg/ml; for IL-8 secretion / IL-8 expression (secretion): day 3; for IL-8 expression: not induced, untreated 1045 pg/ml; for inhibition of endogenous inflammation, conclusion in words: IL-8 as marker; for fold-regulation in secretion (expression) of IL-6 / fold-regulation in secretion (expression) of IL-8: endogenously inflamed skin; for IL-8 expression (secretion): untreated (endogenous) skin sample. An excerpt:
(§1) This Example describes the materials and methods used in preparing ex vivo skin samples for use according to the methods disclosed herein. Materials used in preparation of ex vivo skin samples for use in the disclosed screening methods included: Dulbecco's Modified Eagle Medium (DMEM) plus Glutamax, antibiotic and antimycotics, 1× phosphate-buffered saline (PBS), 150×15 mm sterile culture dishes, sterile gauze 4×4, disposable safety scalpels, 4 mm disposable biopsy punch, 6-well cell-culture inserts, disinfected tweezers, cotton-tipped applicators, 6-well culture plates, ruled, disinfected cutting mat (12×12), scraper handle, tissue freezing medium, biopsy cassettes, frozen-tissue freezing vessels, 10% formalin, shipping containers for fixed tissue, and biohazard/sharps containers. Media was prepared in advance of the arrival of ex vivo skin. The skin arrived with the dermis (fat) side down on sterile DMEM soaked gauze in a sterile culture dish. The culture dish was taped shut and in a biohazard zip-lock baggie on an ice pack in a secondary container.
(§2) On arrival, the skin was removed from the bag and soaked in 3×DMEM media (3× refers to concentration of antibiotic and antimycotics) and stored at 4° C. for 1 hour. After 1 hour, the skin was removed from the 3×DMEM and rinsed with sterile 1×PBS. The skin was placed in a clean culture dish containing gauze soaked with 1×DMEM. The sample was put in culture the same day as arrival. If necessary, however, the ex vivo skin samples can be stored at 4° C. overnight.
(§3) In preparation for culture, the following was performed: on a cutting mat, the skin was flipped over so that the epidermis was down and the subcutis (fat) was exposed. The fat was removed with a disposable scalpel by carefully grasping one corner of the skin with sterile serrated forceps and scraping the fat away with the blade held at a 45° angle to the skin. After the fat was removed, the surgical edges were cut off with a scalpel using a scraper as a straight edge guide and to hold the skin in place. Using the scraper as a guide, the skin was cut into 1.25 cm (2×2 squares on grid) wide strips using a ruler to measure the width. The strip was rinsed in a 100 mm culture dish containing 1×PBS. The strips were cut into 1.25 cm^2 squares and placed in a 100 mm culture dish on 1×DMEM-soaked gauze until they were put into culture 30 minutes later.
(§4) Culture plates were prepared that included 2.5 ml of media or media with treatment (e.g., a candidate modulator, an inflammation inducer, and/or an inhibitor of inflammation) in each well of a 6-well plate. One Millicell culture insert was added to each well and 100 μl of 1× DMEM was put in the center of each insert membrane. Squares of skin tissue were selected randomly and placed into each of the inserts (one piece of skin per insert), on top of the media on the membrane. The plates were stored at 33° C., with fresh media changes daily. As a control, baseline tissue measurements were collected from excess waste (cryogenics were used for snap-freezing). Baseline biopsy collection included two 4 mm punches for an MTT colorimetric assay (described below); one 4 mm punch was snap-frozen in OCT tissue compound for fresh histology; one 4 mm punch was fixed in 10% formalin and sent out for paraffin embedding. Expression measurements of inflammation marker genes were performed using PCR and primers appropriate to the known sequence of the gene(s) of interest.
(§5) Culturing and treatment of the ex vivo skin model comprised replicates of n=5. Before experimental treatment, compounds (e.g., a candidate modulator, an inflammation inducer, or a suppressor of inflammation) were solubilized in appropriate solvents (including PBS, media, alcohol, and DMSO). Appropriate dilutions were made for treatment and 15 ml of media was used per plate per day for treatment, with 2.5 ml of media per well under the cell culture insert. Media was pre-warmed and changed every day during the experiment.

Experiment [2] has as its system induced inflamed ex vivo human skin sample (IL-17 + IL-22). Description: Inhibitors of IL-17/IL-22-induced inflammation: IL-8 secretion by ex vivo skin samples. The following applies: for IL-8 expression: induced by IL-17 (200 ng/ml)/IL-22 (20 ng/ml), day 4, induced alone 1798 pg/ml; for inhibition of IL-17/IL-22 induced inflammation, conclusion in words: IL-8 as marker; for IL-8 expression (secretion): IL-17/IL-22-induced inflammation, day 3, induced alone about 3,800 pg/ml.

Experiment [3] relates to endogenously inflamed ex vivo human skin sample. The experiment is described as follows: Inhibitors of endogenous inflammation: inflammation marker gene expression in ex vivo skin samples. The following applies: 10 μM clobetasol.
Source text: as §1, §2, §3, §4
(§6) Culturing and treatment of the ex vivo skin model comprised replicates of n=5. Before experimental treatment, compounds (e.g., a candidate modulator, an inflammation inducer, or a suppressor of inflammation) were solubilized in appropriate solvents (including PBS, media, alcohol, and DMSO). Appropriate dilutions were made for treatment and 15 ml of media was used per plate per day for treatment, with 2.5 ml of media per well under the cell culture insert. Media was pre-warmed and changed every day during the experiment. […]

The test system of experiment [4] is induced inflamed ex vivo human skin sample (IL-17 + IL-22). The experiment is described as follows: Inhibitors of IL-17/IL-22-induced inflammation: inflammation marker gene expression in ex vivo skin samples.
Source text: as §1, §2, §3, §4, §6

The subject of experiment [5] is ex vivo human skin sample. Description: Inducers of inflammation: inflammation marker gene expression in ex vivo skin samples (PCR).
Source text: as §1, §2, §3, §4, §5

[6] abbreviates: endogenously inflamed, 0.6 nM betamethasone, 0.08 μM hydrocortisone, 30 μM ketoprofen, 35 μM arlatone.

Take `c1cnc2c(c1)ccc1cccnc12` [1,10-phenanthroline]: the IL-8 secretion result in experiment [1] (topical 1.2 μg/ml 1,10-phenanthroline) was “about 900 pg/ml”.

With `O=c1cc(-c2ccc(O)cc2)oc2cc(O)cc(O)c12` [apigenin], the IL-8 expression was 106 pg/mL in experiment [1] (25 μM apigenin, day 4) and 1276 pg/mL in experiment [2] (25 μM apigenin). Besides, the “inhibition of endogenous inflammation, conclusion in words” value (“inhibition of endogenous inflammation” for short) in experiment [1] is recorded as “functions effectively in inhibiting endogenous inflammation”. For the same compound, the “inhibition of IL-17/IL-22 induced inflammation, conclusion in words” value in experiment [2] was “does not appear to function effectively to inhibit induced inflammation”.

As to `C[C@H]1C[C@H]2[C@@H]3CCC4=CC(=O)C=C[C@]4(C)[C@@]3(F)[C@@H](O)C[C@]2(C)[C@@]1(O)C(=O)CCl` [clobetasol], the “gene expression of key inflammatory markers (nine marker genes, FIG. 8), in words” value is on record as “appropriately inhibits gene expression of key inflammatory markers” in experiment [3] (endogenous inflammation) and “appropriately inhibits gene expression of key inflammatory markers” in experiment [4] (10 μM clobetasol, IL-17 (200 ng/ml) + IL-22 (20 ng/ml) driven inflammation). Also, the “S100A7 expression, in words” value in experiment [3] (setting [6]) is on record as “inhibited S100A7 expression”. Further, the “rank ordering of inflammation inhibitors based on IL-8 and IL-6 inhibition levels” value in experiment [3] (setting [6]) is recorded as “most effective inhibitor”. The “reduction in the three markers (IL-6, IL-8, and TNFa), rank ordering of efficacy in words (FIG. 15)” value (“reduction in the three markers” below) in experiment [3] (setting [6]) is on record as “shows the greatest reduction”. The “gene expression of IL-8, IL-6, S100A7 and DEFB4, in words” value in experiment [3] (topical, day 3 (72 hours), 1.2 μg/ml 1,10-phenanthroline, endogenous inflammation) is “inhibited expression of IL-8, IL-6 and S100A7”. Moreover, the “IL-6 expression relative to control values” in experiment [4] (10 μM clobetasol with IL-17 (200 ng/ml) and IL-22 (20 ng/ml), induced alone about 6-fold) was “about 0.3 fold”. Besides, in experiment [4] (10 μM clobetasol with IL-17 (200 ng/ml) and IL-22 (20 ng/ml), induced alone about 16-fold), the “IL-8 expression relative to the untreated control” value is reported as “about 3 fold”. In experiment [4] (10 μM clobetasol with IL-17 (200 ng/ml) and IL-22 (20 ng/ml), induced alone about 34-fold), the “S100A7 expression relative to the untreated control” value is “about 26 fold”. Moreover, the “DEFB4 expression relative to controls” value in experiment [4] (10 μM clobetasol with IL-17 (200 ng/ml) and IL-22 (20 ng/ml), induced alone about 800-fold) is “about 200 fold”. Further, in experiment [4] (10 μM clobetasol, IL-17 (200 ng/ml) and IL-22 (20 ng/ml)), the “IL-6 expression level in the presence of the inducers and clobetasol, in words” value is listed as “lower than the IL-6 expression level in untreated skin cells”. The “expression levels of IL-8, IL-6, S100A7 and DEFB4, in words” value in experiment [4] (10 μM clobetasol, inflammation induced by IL-17 (200 ng/ml) and IL-22 (20 ng/ml)) is reported as “significantly reduced expression levels”. Moreover, the “fold-regulation in secretion (expression) of IL-6” value was −3.28 fold in experiment [1] (10 μM clobetasol, donor 1 of 5); −3.55 fold in experiment [1] (10 μM clobetasol, donor 2 of 5); −8.69 fold in experiment [1] (10 μM clobetasol, donor 3 of 5); −5.70 fold in experiment [1] (10 μM clobetasol, donor 4 of 5); −2.20 fold in experiment [1] (10 μM clobetasol, donor 5 of 5). The “fold-regulation in secretion (expression) of IL-8” value in experiment [1] (10 μM clobetasol, donor 1 of 5) is −2.72 fold; in experiment [1] (10 μM clobetasol, donor 2 of 5) it was −2.72 fold; in experiment [1] (10 μM clobetasol, donor 3 of 5) it was −3.68 fold; in experiment [1] (10 μM clobetasol, donor 4 of 5) it was −3.89 fold; in experiment [1] (10 μM clobetasol, donor 5 of 5), −1.76 fold. In addition, the IL-8 expression in experiment [1] (10 μM clobetasol, day 4) is 50 pg/mL; in experiment [2] (10 μM clobetasol) it was 65 pg/mL. The “IL-8 secreted into the media” value is listed as “about 400 pg/ml” in experiment [1] (10 μM clobetasol, otherwise untreated sample, day 4, untreated about 5,800, 0.01% DMSO about 8,000 pg/ml); “about 4,400 pg/ml” in experiment [2] (10 μM clobetasol with 200 ng/ml IL-17 and 20 ng/ml IL-22, day 4, induced without inhibitor about 13,600 pg/ml). Besides, in experiment [1], the “inhibition of endogenous inflammation” value is “functions effectively as an inhibitor of both endogenous and induced inflammation”. In experiment [1] (topical 10 μM clobetasol), the IL-8 secretion result is listed as “about 300 pg/ml”. The “IL-8 expression (secretion)” value is “about 200 pg/ml” in experiment [1] (topical clobetasol 1 μg/cm^2 skin surface, reduction from about 1,200 pg/ml) and “about 1,100 pg/cm^2” in experiment [2] (1 pg/cm^2 topical clobetasol). In experiment [2], the “inhibition of IL-17/IL-22 induced inflammation, conclusion in words” value is “functions effectively as an inhibitor of both endogenous and induced inflammation”.

Take `C[C@]12CCC(=O)C=C1CC[C@@H]1[C@@H]2[C@@H](O)C[C@@]2(C)[C@H]1CC[C@]2(O)C(=O)CO` [hydrocortisone]: in experiment [3] (setting [6]), the “rank ordering of inflammation inhibitors based on IL-8 and IL-6 inhibition levels” value is “followed by betamethasone, hydrocortisone, ketoprofen and arlatone”; the “reduction in the three markers” value is “less robust”.

As for `CC(C(=O)O)c1cccc(C(=O)c2ccccc2)c1` (stereo not drawn) [ketoprofen], in experiment [3] (setting [6]), the “CALML5 expression, in words” value is on record as “slightly inhibiting expression”; the “FLG expression, in words” value is reported as “slightly inhibited expression”; the “rank ordering of inflammation inhibitors based on IL-8 and IL-6 inhibition levels” value was “followed by betamethasone, hydrocortisone, ketoprofen and arlatone”; the “reduction in the three markers” value was “less robust”.

For `S=[Se]=S` [selenium sulfide], the “IL-8 secretion, in words” value in experiment [1] (selenium sulfide 0.04-25 μM (0.04, 0.2, 1, 5, 25 μM), endogenous inflammation, dose response) was “decreased secretion levels of IL-8”.

As to “IL-17: pro-inflammatory cytokine used as inducer of inflammation”, the “induction of inflammation in ex vivo skin samples, in words” value in experiment [5] is reported as “shown to induce inflammation in ex vivo skin samples”.

Consider zinc pyrithione [ZPT], for which the “inhibition of endogenous inflammation” value in experiment [1] is “did not significantly inhibit endogenous inflammation”. For the same compound, the “IL-8 expression (secretion)” value in experiment [1] (topical 0.4 μg/cm^2 zinc pyrithione, without inhibitor about 1,200 pg/ml) is listed as “about 2,000 pg/ml”; in experiment [2] (0.4 μg/cm^2 topical ZPT) it was “about 2,300 pg/ml”. Also, in experiment [2], the “inhibition of IL-17/IL-22 induced inflammation, conclusion in words” value was “did inhibit IL-17. IL-22 induced inflammation”.

Values taken from patent US9804152B1, “Human ex vivo skin model and its use in methods of identifying modulators of skin inflammation” (The Procter & Gamble Company, priority 2012, dated 2017).
